Assay results taken from ChEMBL document CHEMBL1133457 (J Med Chem, 2000).

Assays:
[1] = target: T1, Prostaglandin G/H synthase 1 (Ovis aries, UniProt P05979)
T1 sequence (P05979 whole entry): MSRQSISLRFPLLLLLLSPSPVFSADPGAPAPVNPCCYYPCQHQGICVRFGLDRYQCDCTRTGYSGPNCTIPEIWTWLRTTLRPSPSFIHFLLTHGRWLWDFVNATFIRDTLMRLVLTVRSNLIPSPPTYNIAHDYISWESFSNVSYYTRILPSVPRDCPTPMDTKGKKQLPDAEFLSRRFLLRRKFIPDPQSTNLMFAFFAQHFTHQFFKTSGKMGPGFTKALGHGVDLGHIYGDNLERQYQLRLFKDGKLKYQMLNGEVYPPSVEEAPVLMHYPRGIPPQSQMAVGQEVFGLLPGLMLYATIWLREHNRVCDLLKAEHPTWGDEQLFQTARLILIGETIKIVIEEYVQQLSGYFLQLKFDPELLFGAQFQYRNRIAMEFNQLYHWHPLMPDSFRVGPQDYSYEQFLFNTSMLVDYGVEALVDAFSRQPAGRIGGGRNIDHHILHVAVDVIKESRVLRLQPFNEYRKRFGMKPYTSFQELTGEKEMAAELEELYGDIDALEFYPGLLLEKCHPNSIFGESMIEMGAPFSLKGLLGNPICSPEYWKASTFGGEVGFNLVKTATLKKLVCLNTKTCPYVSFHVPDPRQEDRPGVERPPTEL

[2] = target: T2, Prostaglandin G/H synthase 2 (Homo sapiens, UniProt P35354)
T2 sequence (P35354 whole entry): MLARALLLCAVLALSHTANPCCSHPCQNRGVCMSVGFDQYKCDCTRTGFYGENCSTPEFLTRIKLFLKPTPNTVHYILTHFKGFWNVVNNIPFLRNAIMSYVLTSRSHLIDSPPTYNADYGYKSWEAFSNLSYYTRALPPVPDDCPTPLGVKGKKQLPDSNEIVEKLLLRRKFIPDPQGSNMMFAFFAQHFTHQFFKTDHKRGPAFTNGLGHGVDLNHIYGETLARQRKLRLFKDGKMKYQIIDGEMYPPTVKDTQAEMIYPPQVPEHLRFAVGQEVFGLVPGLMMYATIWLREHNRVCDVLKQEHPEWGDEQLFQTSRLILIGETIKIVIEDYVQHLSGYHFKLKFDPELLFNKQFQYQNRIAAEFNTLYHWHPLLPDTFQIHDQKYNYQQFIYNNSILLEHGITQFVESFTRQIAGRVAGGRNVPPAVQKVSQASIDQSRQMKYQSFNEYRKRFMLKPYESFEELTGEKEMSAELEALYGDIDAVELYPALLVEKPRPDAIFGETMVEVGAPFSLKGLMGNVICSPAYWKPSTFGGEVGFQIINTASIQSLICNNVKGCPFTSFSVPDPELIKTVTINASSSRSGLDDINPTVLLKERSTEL

| SMILES | IC50 [1] [µM] | IC50 [2] [µM] |
| --- | --- | --- |
| CCN(CC)C(=O)Cc1c(C)n(C(=O)c2ccc(Cl)cc2)c2ccc(OC)cc12 | > 66 | 25 |
| COc1ccc2c(c1)c(CC(=O)Nc1cccnc1Cl)c(C)n2C(=O)c1ccc(Cl)cc1 | 45 | 0.05 |
| COc1ccc2c(c1)c(CC(=O)Nc1ncc(C)s1)c(C)n2C(=O)c1ccc(Cl)cc1 | > 66 |  |
| COc1ccc2c(c1)c(CC(=O)Nc1cncc(Cl)c1)c(C)n2C(=O)c1ccc(Cl)cc1 | > 66 | 0.047 |
| COc1ccc2c(c1)c(CC(=O)NNCc1ccccc1)c(C)n2C(=O)c1ccc(Cl)cc1 | > 66 | 2.5 |
| COc1ccc2c(c1)c(CC(=O)NOCc1ccc([N+](=O)[O-])cc1)c(C)n2C(=O)c1ccc(Cl)cc1 | 4 | 0.06 |
| COc1ccc2c(c1)c(CC(=O)OCCc1ccccc1)c(C)n2C(=O)c1ccc(Cl)cc1 |  | 0.04 |
| COc1ccc2c(c1)c(CC(=O)NOCc1ccccc1)c(C)n2C(=O)c1ccc(Cl)cc1 | 0.06 | 0.05 |
| COc1ccc2c(c1)c(CC(=O)NCCOC(=O)/C=C/c1ccc(N(C)C)cc1)c(C)n2C(=O)c1ccc(Cl)cc1 | > 66 |  |
| COc1ccc2c(c1)c(CC(=O)Nc1cc(C)c(C(=O)Nc3ccccc3)cc1OC)c(C)n2C(=O)c1ccc(Cl)cc1 | 17 | 0.6 |
| COc1ccc2c(c1)c(CC(=O)Nc1cc(OC)c(OC)c(OC)c1)c(C)n2C(=O)c1ccc(Cl)cc1 | > 66 | > 1 |
| COc1ccc2c(c1)c(CC(=O)Nc1ccc(C(N)=O)cc1)c(C)n2C(=O)c1ccc(Cl)cc1 | > 66 | 0.14 |
| COc1ccc2c(c1)c(CC(=O)N(C)C)c(C)n2C(=O)c1ccc(Cl)cc1 | > 66 |  |
| COc1ccc2c(c1)c(CC(=O)NCCc1ccccc1)cn2C(=O)c1ccc(Cl)cc1 | > 66 | > 66 |
| COc1ccc2c(c1)c(CC(=O)OCCNC(=O)OC(C)(C)C)c(C)n2C(=O)c1ccc(Cl)cc1 | > 66 | 0.045 |
| COc1ccc2c(c1)c(CC(=O)Oc1cccc3ccccc13)c(C)n2C(=O)c1ccc(Cl)cc1 | > 66 | 5 |
| COc1ccc2c(c1)c(CC(=O)OCCc1ccccc1)cn2C(=O)c1ccc(Cl)cc1 | > 66 | > 66 |
| COc1ccc2c(c1)c(CC(=O)N1CCOCC1)c(C)n2C(=O)c1ccc(Cl)cc1 [INDOMETHACIN MORPHOLINYLAMIDE] | > 66 | > 33 |
| COC(=O)[C@@H](C)NC(=O)Cc1c(C)n(C(=O)c2ccc(Cl)cc2)c2ccc(OC)cc12 |  | 0.4 |
